A value given as a limit tells only on which side of the number the result lay.

One data set relates to A549-xenografted tumors. In words: A549 xenograft nude mouse model. The conditions noted are these: cisplatin 5 mg/kg intravenous.
Another data set relates to cancer and normal cells. In words: AV/PI flow cytometric analysis, positive control. It counts as cell-based, human. As to conditions: 24 h, AV/PI staining. The protocol:
5 × 10^5/well cells were plated into 6-well plates and incubated at 37 °C with 5% CO2 for 24 h to allow adhesion. […] The conditioned medium was collected into a 15 mL conical tube to retrieve the floating cells, while adherent cells were detached using trypsin. The floating cells in the collected medium were combined with the detached adherent cells and centrifuged for 2 min at 3000 rpm at 4 °C to collect the cells. The cell pellet was resuspended using 1x binding buffer containing AV and PI and incubated for 30 min at 37 °C. The cells were analyzed using a CytoFLEX Flow Cytometer (Beckman Coulter, Brea, CA, USA).
(In general: In flow cytometry, cells or beads pass a laser one at a time.)

In data set [1] the test system is human red blood cells (RBCs). Nature of the data set: Hemolysis assay. The conditions noted are these: human RBCs in PBS, 37 °C, 1 h, absorbance 405 nm, relative to 1% Triton X-100. In kind it is cell-based. As for the experimental part:
This study was approved by the Institutional Review Board of Dongguk University (No.: DGU IRB 20200007-01). RBCs were prepared from human blood obtained from the Korean Red Cross by centrifugation at 2000 rpm for 30 min at 10 °C, followed by pellet collection. RBC pellets were washed by resuspending in phosphate-buffered saline (PBS) and centrifugation at 2000 rpm for 30 min at 10 °C thrice. Subsequently, RBCs were resuspended in PBS and 50 μL/well of RBC solution was loaded into a 96-well plate. […] Finally, the absorbance of the supernatant was measured at 405 nm using an Epoch ELISA Reader. […] All the absorbance values were normalized to those of PBS.

A further data set deals with HaCaT cells. In words: MTT cell viability assay. As to conditions: 24 h treatment, absorbance 530 nm. As for the experimental part:
(§1) Then, the cells were further incubated for 4 h in the dark after adding MTT reagent. After incubation, formed formazan crystal was dissolved. The absorbance of the solubilized formazan was measured at 530 nm to determine cell viability of each AMP.
(§2) A549 human lung cancer cells, MDA-MB-231 triple-negative human breast cancer cells, HT-29 human colorectal adenocarcinoma, Panc-1 human pancreatic cancer cell line, and Caco2 human epithelial cell line were purchased from the Korean Cell Line Bank (Seoul, Republic of Korea). HaCaT human keratinocytes were gifted by Professor Su-Kyung Kim (Department of Pharmacology, Keimyung University School of Medicine). The cells were routinely grown in Dulbecco’s Modified Eagle Medium supplemented with 10% fetal bovine serum and 1% antimycotic/antibiotic solution at 37 °C in an atmosphere containing 5% CO2.
(§3) 1 × 10^4 cells were seeded into each well in a 96-well plate and attached for 24 h at 37 °C. […] The medium was removed, and the cells were incubated for 4 h in the dark after adding 50 μL of MTT reagent (Sigma-Aldrich; Merck KGaA, Darmstadt, Germany) in an each well.
In general terms: Tetrazolium assays rely on reduction of a dye to a coloured formazan, in cell work by metabolically active cells.

A further data set relates to Caco-2 cells. Nature of the data set: MTT cell viability assay. The conditions noted are these: Caco-2, 24 h treatment, absorbance 530 nm. As for the experimental part: as §1, §2, §3

Experimental for A549-xenografted tumors: The body weights of mice and their tumor sizes were measured twice a week. Cisplatin was used as internal control.
The four-week-old female Balb/c nu/nu mice were bought from Orient Bio (Sungnam, Republic of Korea) and maintained for two weeks at 25 ± 2 °C in 50 ± 5% relative humidity with 12 h dark/light cycles. Then, 5 × 10^6 A546 human lung cancer cells mixed with Matrigel were injected subcutaneously into the right dorsal area. […] The body weights and tumor sizes of the mice were measured twice a week for five weeks. […] The tumor volume in each mouse was determined using the following formula: tumor volume (mm^3) = length × width^2 × 0.5.

On to `N.N.[Cl][Pt][Cl]` [cisplatin], for which the body weight result with A549-xenografted tumors is recorded as “significant body weight loss”. Also, the tumor growth result in the data set with A549-xenografted tumors (twice in the first week, start at about 400 mm^3) was “effectively suppressed”.
Consider `CC[C@H](C)[C@H](NC(=O)CN)C(=O)NCC(=O)N[C@@H](C)C(=O)N[C@H](C(=O)N[C@@H](CC(C)C)C(=O)N[C@@H](CCCCN)C(=O)N[C@H](C(=O)N[C@@H](CC(C)C)C(=O)N[C@H](C(=O)N[C@H](C(=O)NCC(=O)N[C@@H](CC(C)C)C(=O)N1CCC[C@H]1C(=O)N[C@@H](C)C(=O)N[C@@H](CC(C)C)C(=O)N[C@H](C(=O)N[C@@H](CO)C(=O)N[C@@H](Cc1c[nH]c2ccccc12)C(=O)N[C@H](C(=O)N[C@@H](CCCCN)C(=O)N[C@@H](CCCNC(=N)N)C(=O)N[C@@H](CCCCN)C(=O)N[C@@H](CCCNC(=N)N)C(=O)N[C@@H](CCC(N)=O)C(=O)N[C@@H](CCC(N)=O)C(N)=O)[C@@H](C)CC)[C@@H](C)CC)[C@@H](C)O)[C@@H](C)O)C(C)C)C(C)C` [melittin], for which, in the data set on cancer and normal cells, the “cytotoxicity in cancer and normal cells” value is “high cytotoxicity”. In addition, the “concentration showing hemolytic activity” value in data set [1] was “exceeding 8 μg/mL”. For the same molecule, the concentration showing cytotoxicity in the data set with HaCaT cells and in the data set on Caco-2 cells was at least 8 µg/mL each time.

Source of the values: PMC12429151 (International Journal of Molecular Sciences, 2025).
